Source: PMC4678601 (Chemical science (Royal Society of Chemistry : 2010), 2014)

Tests used:
[1] = system: BBOX; conditions: read-out: IC50 BBOX in vitro; cited from earlier work
[2] = system: carnitine biosynthesis in HEK 293T cells; experiment: LC-MS detection of carnitine levels in HEK 293T cells; format: cell-based, human; conditions: for Carnitine levels: control 100% (SEM ± 13%)
[3] = system: BBOX; conditions: read-out: KM of BBOX for 2OG; cited from earlier work
[4] = target: T1, BBOX (Homo sapiens, UniProt O75936); experiment: Binding assay by quenching of the intrinsic fluorescence of BBOX
T1 sequence (O75936 1-387): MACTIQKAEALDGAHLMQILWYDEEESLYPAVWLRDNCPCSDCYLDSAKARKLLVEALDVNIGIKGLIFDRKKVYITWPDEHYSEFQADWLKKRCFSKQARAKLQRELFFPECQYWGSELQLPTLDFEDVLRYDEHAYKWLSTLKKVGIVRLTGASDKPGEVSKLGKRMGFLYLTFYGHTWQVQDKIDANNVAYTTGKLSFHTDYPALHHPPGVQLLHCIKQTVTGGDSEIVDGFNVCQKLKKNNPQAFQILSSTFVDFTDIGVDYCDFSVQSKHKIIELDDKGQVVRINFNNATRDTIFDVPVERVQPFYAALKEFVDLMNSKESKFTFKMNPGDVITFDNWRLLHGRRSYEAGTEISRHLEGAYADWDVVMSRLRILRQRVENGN

[5] = system: histone demethylases (KDMs); experiment: Selectivity panel of human 2OG oxygenases: histone demethylases; format: biochemical; conditions: at 100 μM
[6] = system: HEK 293T cells; experiment: Cytotoxicity in HEK 293T cells; format: cell-based, human; conditions: up to concentrations of 0.5 mM

In the case of `C[N+](C)(C)NCCC(=O)[O-]` [Mildronate], the IC50 [1] is given as 60 µM, the Carnitine levels ([2]; HEK 293T cells, 20 μM compound) is given as 70 ± 6 percentage of free carnitine l and the “Reduction of carnitine levels” value ([2]; HEK 293T cells, 50 μM) is given as 63%. For the same molecule, the Carnitine levels ([2]; HEK 293T cells, 50 μM compound) was 37 ±10 percentage of free carnitine l, the “Activity on carnitine levels” value ([2]; HEK 293T cells, below 5 μM) was “not active” and the “Reduction of carnitine levels” value ([2]; cells, 20 μM) was 30%.

In the case of `O=C(O)CCC(=O)C(=O)O` [2OG, 2-oxoglutarate], the Km [3] is given as 160 µM.

`O=C(O)CNC(=O)c1ncccc1O` [compound 1, (3-hydroxypicolinoyl)glycine] gave a Kd [4] of 10.8 µM.

In the case of `C[N+](C)(C)CCCC(=O)[O-]` [GBB, γ-butyrobetaine], the “Reduction of carnitine levels” value ([2]; cells, 20 μM) is reported as ~ 50%.

For `O=C(N[C@@H](CSCc1ccccn1)C(=O)O)c1ncccc1O` [AR692B], the “Activity against the tested KDMs” value [5] was “inactive”, the Cytotoxicity [6] was “not cytotoxic” and the “Reduction in carnitine levels” value ([2]; HEK 293T cells, 100 μM) was greater than 40%. For the same molecule, the Carnitine levels ([2]; HEK 293T cells, 100 μM compound) was 57 ± 9 percentage of free carnitine l.
